Reference: patent US20240168011A1, “CLEARANCE ASSAY” (Akershus Universitetssykehus HF, priority 2021, published 2024)
Entries after “also recorded” stand apart in the source; their conditions may differ. Where a name gives a salt, the structure may show the parent alone.

Tests used:
[1] = tested on: THP-1 cells; test: Chase assay of Aβ catabolism, Simoa immunoassays of intracellular Aβ fragments (Example 1); format: cell-based; settings: TPA-differentiated THP-1; 100 ng/ml Abeta40 2 h, 4 hours chase; 100 nM Bafilomycin, 100 nM Rapamycin, 100 μM Neprilysin inhibitor, 200 nM BACE inhibitor, 1 μM IDE inhibitor; vs 4 hour chase
Protocol: To adjust for inter-day variations in measurements for the different experiments, values were normalized using the baseline condition as the reference for each day of experiments using the following formula: [(biomarker value/mean biomarker value)[…])].
Statistical analyses were carried out with one-way ANOVA models. If a significant (p<0.05) omnibus (F-test) ANOVA was shown, planned comparisons according to our hypotheses were carried out. This included a main comparison between the reference condition and experimental conditions (endolysosomal inhibitors and autophagosome activators). The Figures thus indicate within each bar the percentage change, and associated statistical significance (p-value) or lack thereof (n.s.), as compared to the reference condition (100%) (i.e. the main comparison). For some experiments (FIGS. 4, 5 and 7), additional comparisons between experimental conditions were conducted in accordance with hypotheses. Significant between-group differences for these comparisons are shown with horizontal bars with the associated statistical significance (p-value), or lack thereof (n.s.).
Aβ catabolism and detoxification, and the effect of example inhibitors and activators thereon, was measured using antibodies specific for intracellular Aβ mid-domain peptides, i.e. catabolism products. In particular, inhibition of endolysosomal activity is expected to reduce degradation and increase concentrations of species, here studied with Bafilomycin, which blocks V-ATPase and inhibits acidification of endolysosomes, thereby inhibiting endolysosomal enzyme activities. Addition of inhibitors of endolysosomal enzymes Neprilysin (Saido 2013) and Insulin Degradation Enzymes are expected to have similar effects (Jha, Jha et al. 2015, Sikanyika, Parkington et al. 2019), whereas BACE1 is involved both in Aβ generation and […] (Vassar, Kovacs et al. 2009, Liebsch, Kulic et al. 2019). Enhancing macroautophagy using Rapamycin is also expected to increase Aβ catabolism (FIG. 3; Spilman, Podlutskaya et al. 2010, Malik, Maddison et al. 2019)
Immunoassays were developed on the single molecule array (Simoa) platform (Quanterix, US) using proprietary antibodies directed against different epitopes of the amyloid β protein (Shown in FIG. 1; SEQ ID NOs: 3-5). The Aβx-40/42 assay used a 40-42 end-specific sheep monoclonal AB.4D7 (Bioventix plc, UK) as the capture antibody, and a sheep monoclonal AB.2A9 (Bioventix plc, UK) with a mid-domain epitope (SEQ ID NO: 7) as the detection antibody. The 40-42 end-specific antibody was raised against the epitope shown in SEQ ID NO: 5, and binds the C-terminal of both Aβ1-42 (SEQ ID NO: 1) and Aβ1-40 (SEQ ID NO: 2). The Aβ20-x assay used the same AB.4D7 antibody as the capture antibody, and the highly specific 20-cut point sheep monoclonal antibody, ABNT.2B8 (Bioventix plc, UK) as the detection antibody. For the Aβx-34 assay, AB.2A9 was used as the capture antibody and an anti-complex antibody, BVX.33420/H3 (Bioventix plc, UK), which preferentially binds a fragment having the C-terminal of SEQ ID NO: 6, was used as the detection antibody, ensuring mid-domain x-34 specificity.
Chase Assays THP-1 cells were differentiated toward macrophages by a 48 hour treatment with 100 nM TPA (12-O-tetradecanoylphorbol-13-acetate). Media was replaced with fresh medium with or without modulators of the autophagic/endolysosomal system: 100 nM Bafilomycin, 100 nM Rapamycin, 100 μM Neprilysin inhibitor, 200 nM BACE inhibitor, or 1 μM IDE inhibitor, or a triple combination of the enzyme inhibitors Neprilysin inhibitor, BACE inhibitor and IDE inhibitor. The cells were incubated for 1 hour before adding 100 ng/ml Abeta40 to the cells. Cells were further incubated for 2 hours before removing Abeta40 and a continued 4 hours chase with or without the respective modulators. Cells were washed before adding lysis buffer. Lysates were kept at −80° C. until analysis.

[2] = tested on: THP-1 cells; test: Chase assay with proposed AD interventions, Mesoscale immunoassay (Example 2); format: cell-based; settings: 16 hours DHA (100 μM) and/or NS1738 (10 μM); Aβ1-40 500 ng/ml; reference Aβ40 4 hour chase
Protocol: An immunoassay was set up on a Mesoscale platform using the same antibodies as, and a similar method to, Example 1. Cells were incubated overnight (16 hours) with DHA (100 μM) and/or NS1738 (10 μM). Aβ1-40 was added at a concentration of 500 ng/ml, and removed from the media before the 4 hour chase. DHA and NS1738 were removed from the media during the 4 hour chase.

[3] = tested on: cells in an innate immune model system; settings: DHA treatment of cells in an innate immune model system; cited from earlier work
[4] = tested on: THP-1 cells; test: Clearance assay on a background of LPS inflammatory activation, Mesoscale immunoassay (Example 4); format: cell-based; settings: with LPS, 16 h; Aβ1-40 2 h; 4 h chase; reference LPS+Aβ40 4 hour chase
Protocol: The immunoassay was set up on a Mesoscale platform. THP-1 cells were differentiated towards phagocytic monocytes/macrophages during a 48 h incubation with 12-O-tetra-decanoylphorbol-13-acetate (TPA). Media were replaced with fresh medium containing LPS alone or LPS together with DHA or NS1738 or combination of DHA and NS1738, for an overnight incubation (16 h). The marker protein (Aβ1-40) was added to the cells for an additional 2 h incubation. Media were replaced with fresh medium without any additives and the cells were further incubated for a 4 h chase period. The cells were kept cold, media removed, and the cells washed with cold PBS. Lysis buffer containing protease inhibitors and sodium dodecyl sulfate (SDS) was added to the cells. After lysis, the cells were scraped and transferred to tubes and kept in a −80° C. freezer. Lysates were sonicated and treated with DNase before analysis on the degradation assays.

[5] = target: Aβ20-34, mid-domain fragment of Aβ1-42 and Aβ1-40; test: monocyte lysate pool + 12 pg/ml Aβ20-34 pre-incubated with the antibody, then Simoa Aβx-34 immunoassay (untreated 13.8 pg/ml)
[6] = target: Aβ20-34, mid-domain fragment of Aβ1-42 and Aβ1-40; test: monocyte lysate pool + 12 pg/ml Aβ20-34 pre-incubated with the antibody, then Simoa Aβx-34 immunoassay

Molecule | intracellular Aβ20-x level [1] | intracellular Aβx-34 level [1] | intracellular Aβx-40/42 level [1] | further results
NC1=N[C@@]2(c3cc(NC(=O)c4ccc(F)cn4)ccc3F)COC[C@H]2CS1 [BACE inhibitor, LY2886721] | increases | no effect | no effect | –
CO/C1=C\C(C)=C\[C@@H](C)[C@@H](O)[C@@H](C)C/C(C)=C/C=C/[C@H](OC)[C@@H]([C@@H](C)[C@@H](O)[C@H](C)[C@@]2(O)C[C@@H](O)[C@H](C)[C@@H](C(C)C)O2)OC1=O [Bafilomycin, Bafilomycin A1] | significantly increases | non-significantly increases | significantly increases | –
CC/C=C\C/C=C\C/C=C\C/C=C\C/C=C\C/C=C\CCC(=O)O [DHA, (4Z, 7Z, 10Z, 13Z, 16Z, 19Z)-4,7, 10, 13, 16, 19-docosahexaenoic acid] | – | – | – | intracellular Aβx-34 level [2]: reduces the amount; also recorded: decreased; Aβ1-42 phagocytosis and degradation [3]: increase; intracellular Aβ20-x level [4]: continue to have an effect; intracellular Aβx-34 level [4]: continue to have an effect; intracellular Aβx-40 level [4]: continue to have an effect
NCCCC[C@@H]1NC(=O)/C=C/C(=O)N[C@H](C(N)=O)CCCCNC(=O)[C@@H](Cc2ccc(C(=O)c3ccccc3)cc2)NC(=O)[C@H](CC2CCCCC2)NC1=O [IDE inhibitor, 6bK] | increases | no effect | no effect | –
O=C(Nc1cc(Cl)ccc1O)Nc1cc(C(F)(F)F)ccc1Cl [NS1738] | – | – | – | intracellular Aβx-34 level [2]: reduces the amount; also recorded: decreased; intracellular Aβ20-x level [4]: continue to have an effect; intracellular Aβx-34 level [4]: continue to have an effect; intracellular Aβx-40 level [4]: continue to have an effect
CC(C)C[C@H](NP(=O)(O)O[C@@H]1O[C@@H](C)[C@H](O)[C@@H](O)[C@H]1O)C(=O)N[C@@H](Cc1c[nH]c2ccccc12)C(=O)O [Neprilysin inhibitor, Phosphoramidon disodium salt] | increases | unchanged | increases | –
unspecific antibody LB509 | – | – | – | concentration left after depletion [5]: 11.1 pg/mL; Percent of untreated [6]: 80%
